{
  "source": "patent US10100284B2",
  "about": "“Method for inducing differentiation of pluripotent stem cells into endodermal cells” (TOAGOSEI CO., LTD., priority 2013, dated 2018)",
  "key": {"[1]": {"system": "human-derived iPS cells (clone name: 201B2 or 201B7)", "test": "Stem cell differentiation-inducing activity based on iPS cell transformation (optical microscope morphology)", "conditions": "peptide concentration 4.0 μM; eight days after the beginning of culture; FIG. 1; peptide-free group 80% or more black (undifferentiated)", "procedure": "The differentiation-inducing activity of a differentiation-inducing synthetic peptide (Sample 1) obtained in Example 1 above was evaluated based on the transformation of iPS cells cultured and passaged in vitro. A peptide-free group was also provided as a comparative example. The details of the evaluation test were as follows.\nCells supplied by the Kyoto University Center for iPS cell Research and Application were used as the human-derived iPS cells in this example (clone name: 201B2 or 201B7, reference source: Takahashi K et al., Cell, 131, 861-872 (2007)). For the feeder cells used in culturing these iPS cells, mouse embryonic fibroblasts (MEF cells) were used to passage (maintain) the iPS cells, while mouse embryonic fibroblasts (cell strain SNL 76/7) supplied under license by the Baylor College of Medicine were used in testing to evaluate the stem cell differentiation-inducing activity of the differentiation-inducing synthetic peptide (Sample 1).\nFeeder cells that had been inactivated by mitomycin C treatment were seeded ahead of time on a gelatin-coated 24-well plate 1 to 4 days before seeding of the iPS cells. […]"}, "[2]": {"system": "iPS cells (clone name: 201B2 or 201B7)", "test": "AFP ELISA of iPS cell culture supernatant", "type": "cell-based, human", "conditions": "peptide concentration in medium 6 μM; as culture time increased; FIG. 4", "procedure": "The stem cell differentiation-inducing activity of the differentiation-inducing synthetic peptide (Sample 1) obtained in Example 1 was evaluated by quantifying changes over time in the expressed amounts (typically extracellular secretion) of AFP and ALB, which are proteins known as markers of differentiation into endodermal cells. It is known that AFP is expressed in cells that have differentiated into liver precursor cells among the endodermal cells, while ALB is expressed in cells that have differentiated sufficiently to function effectively as hepatocytes (that is, hepatocytes or hepatocyte-like cells). […]\n200 μL of a substrate solution obtained by mixing 1 volume each of the accessory coloring reagent (A) and coloring reagent (B) was added per well, and left standing for 30 minutes in the dark. […] Absorbance A450 at 450 nm and absorbance A550 at 550 nm were then measured with a spectrophotometer in the reaction liquid in the wells.\nAbsorbance values A(450-550) were calculated by subtracting the absorbance A550 from the absorbance A450 obtained by the previous measurement (that is, absorbance A(450-550)=[…]) for each of the samples from the AFP evaluation test group and ALB evaluation test group. […]"}},
  "note": "Where no end group is shown, it is not given here.",
  "data": [
    {"substance": "LLLLLLVGLTAPAGKKRTLRKNDRKKR-CONH2 (LLLLLLVGLTAPAGKKRTLRKNDRKKR-NH2) [Sample 1]", "values": [
      {"measurement": "part of microscope field appearing white (occupied by colonies of differentiated iPS cells)", "setting": "[1]", "result": "≥ 80", "unit": "%"},
      {"measurement": "AFP level of the culture supernatant in comparison with peptide-free group with the same culture time", "setting": "[2]", "result": "increased dramatically"}
    ]}
  ]
}
